Where “and” joins values, the source holds several entries; their conditions need not be identical. Identical values can stand only once.
Tested on: 521955-158-R2-J5-PDC complex spheroid growth
Test: Anticancer human tumor 521955-158-R2-J5-PDC patient-derived pancreatic carcinoma cell line growth inhibition [AhR]
Details: for viability, T/C: stronger effect = lower value
Procedure, shortened: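 Spheroids combined tumor cells with HUVEC endothelial cells and human MSCs as stroma. AhR antagonists were paired with standard or investigational drugs, each dosed in half-log steps down from near clinical Cmax, or from 10 microM where Cmax was unknown.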

[1] = curve of first compound, second compound 0.1 µM
[2] = curve of first compound, second compound 0.316 µM
[3] = curve of first compound, second compound 1 µM
[4] = curve of first compound, second compound 3.16 µM
[5] = curve of first compound, second compound 10 µM
[6] = second compound 0.1 µM, first compound 0.0316 µM
[7] = second compound 0.1 µM, first compound 0.1 µM
[8] = second compound 0.1 µM, first compound 0.316 µM
[9] = second compound 0.1 µM, first compound 1 µM
[10] = second compound 0.1 µM, first compound 3.16 µM
[11] = second compound 0.1 µM, first compound 10 µM
[12] = second compound 0.316 µM, first compound 0.0316 µM
[13] = second compound 0.316 µM, first compound 0.1 µM
[14] = second compound 0.316 µM, first compound 0.316 µM
[15] = second compound 0.316 µM, first compound 1 µM
[16] = second compound 0.316 µM, first compound 3.16 µM
[17] = second compound 0.316 µM, first compound 10 µM
[18] = second compound 1 µM, first compound 0.0316 µM
[19] = second compound 1 µM, first compound 0.1 µM
[20] = second compound 1 µM, first compound 0.316 µM
[21] = second compound 1 µM, first compound 1 µM
[22] = second compound 1 µM, first compound 3.16 µM
[23] = second compound 1 µM, first compound 10 µM
[24] = second compound 3.16 µM, first compound 0.0316 µM
[25] = second compound 3.16 µM, first compound 0.1 µM
[26] = second compound 3.16 µM, first compound 0.316 µM
[27] = second compound 3.16 µM, first compound 1 µM
[28] = second compound 3.16 µM, first compound 3.16 µM
[29] = second compound 3.16 µM, first compound 10 µM
[30] = second compound 10 µM, first compound 0.0316 µM
[31] = second compound 10 µM, first compound 0.1 µM
[32] = second compound 10 µM, first compound 0.316 µM
[33] = second compound 10 µM, first compound 1 µM
[34] = second compound 10 µM, first compound 3.16 µM
[35] = second compound 10 µM, first compound 10 µM
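For viability, T/C in this document: spheroids mix tumor cells with HUVEC endothelium and human MSC stroma; luminescence taken as viability surrogate after a week of drug exposure.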

Structure (SMILES): CC(C)c1c(-c2ccccc2)nc2c(C#N)c[nH]n2c1=O + CC(CO)NC(=O)c1cc(-c2ccc(Cl)cc2)nn(-c2cnn(C)c2)c1=O
- IC50 [1]: > 10 µM
- IC50 [2]: > 10 µM
- IC50 [3]: > 10 µM
- IC50 [4]: > 10 µM
- IC50 [5]: > 10 µM
- viability, T/C [6]: 91%
- viability, T/C [7]: 83.6%
- viability, T/C [8]: 89.4%
- viability, T/C [9]: 91.4%
- viability, T/C [10]: 66.3%
- viability, T/C [11]: 78.2%
- viability, T/C [12]: 80.1%
- viability, T/C [13]: 103%
- viability, T/C [14]: 75.7%
- viability, T/C [15]: 86.1%
- viability, T/C [16]: 73.3%
- viability, T/C [17]: 88.5%
- viability, T/C [18]: 82.1%
- viability, T/C [19]: 89.4%
- viability, T/C [20]: 93.5%
- viability, T/C [21]: 94.2%
- viability, T/C [22]: 70.7%
- viability, T/C [23]: 51.9%
- viability, T/C [24]: 98.5%
- viability, T/C [25]: 93.7%
- viability, T/C [26]: 97%
- viability, T/C [27]: 96.5%
- viability, T/C [28]: 72%
- viability, T/C [29]: 70%
- viability, T/C [30]: 84.5%
- viability, T/C [31]: 81.2%
- viability, T/C [32]: 86.4%
- viability, T/C [33]: 71.8%
- viability, T/C [34]: 54.6%
- viability, T/C [35]: 54.7%

Structure (SMILES): Nc1ccn(C2OC(CO)C(O)C2(F)F)c(=O)n1 (configuration not stated)
- viability, T/C (compound 0.0316 µM): 73.8% and 54.7% and 44.6%
- viability, T/C (compound 0.1 µM): 79.4% and 73.8% and 60.9%
- viability, T/C (compound 0.316 µM): 62.2% and 61% and 53.9%
- viability, T/C (compound 1 µM): 39.4% and 28.6% and 24.9%
- viability, T/C (compound 3.16 µM): 29.8% and 15.9% and 17.8%
- viability, T/C (compound 10 µM): 28.7% and 13.2% and 15.3%
- IC50 (curve of compound): 0.59 µM and 0.472 µM and 0.359 µM

Structure (SMILES): O=C(C=Cc1cccc(S(=O)(=O)Nc2ccccc2)c1)NO + CC(CO)NC(=O)c1cc(-c2ccc(Cl)cc2)nn(-c2cnn(C)c2)c1=O
- IC50 [1]: 4.62 µM
- IC50 [2]: 4.89 µM
- IC50 [3]: 3.6 µM
- IC50 [4]: 5.85 µM
- IC50 [5]: 4.59 µM
- viability, T/C [6]: 108%
- viability, T/C [7]: 107%
- viability, T/C [8]: 122%
- viability, T/C [9]: 93.2%
- viability, T/C [10]: 58.3%
- viability, T/C [11]: 35.5%
- viability, T/C [12]: 114%
- viability, T/C [13]: 135%
- viability, T/C [14]: 131%
- viability, T/C [15]: 91.2%
- viability, T/C [16]: 62.6%
- viability, T/C [17]: 35%
- viability, T/C [18]: 131%
- viability, T/C [19]: 126%
- viability, T/C [20]: 120%
- viability, T/C [21]: 92.9%
- viability, T/C [22]: 53.2%
- viability, T/C [23]: 26.5%
- viability, T/C [24]: 117%
- viability, T/C [25]: 101%
- viability, T/C [26]: 114%
- viability, T/C [27]: 98.1%
- viability, T/C [28]: 67.3%
- viability, T/C [29]: 35.1%
- viability, T/C [30]: 94.1%
- viability, T/C [31]: 90.6%
- viability, T/C [32]: 82.8%
- viability, T/C [33]: 86.2%
- viability, T/C [34]: 61.4%
- viability, T/C [35]: 25.1%

From PubChem BioAssay AID1918998 (Molecular Pharmacology Branch, DTP, NCI, 2023)
